# Data as given in patent US9221827B2, “Antimicrobial compounds and methods of making and using the same” (Melinta Therapeutics, Inc., priority 2011, dated 2015).
# Test system: Escherichia coli strain ATCC25922
# Assay: standard microdilution assay to determine minimum inhibitory concentrations (MICs)
# Type: cell-based
# Summary of the method: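 MICs come from CLSI-guided microdilution in 100 μl, run alongside reference-strain performance standards. Values appear as "+" or "−" relative to 16 micrograms/ml, with "N/A" marking missing data.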
# [1] = Escherichia coli strain ATCC25922, microdilution
# [2] = Escherichia coli strain ATCC25922, standard microdilution assay
SMILES,E. coli ATCC25922 MIC [1],E. coli ATCC25922 MIC [2]
C[C@H](N)CCCc1cc(OC(F)(F)F)c(F)c(-c2cc3cn(-c4ccc([C@H](C)NCCCNC(=N)N)cc4)c(=O)nc3[nH]2)c1 [Compound 316],+ (a “+” indicates that the compound has an MIC value of 16 micrograms/ml or less),–
COCc1cc(CCCCN)cc(-c2cc3cn(-c4ccc(CNCCCNC(=N)N)cc4)c(=O)nc3[nH]2)c1 [Compound 3],+ (a “+” indicates that the compound has an MIC value of 16 micrograms/ml or less),–
CC(N)CCCc1cc(-c2cc3cn(-c4ccc(C(CC(=O)O)NCCCNC(=N)N)cc4)c(=O)nc3[nH]2)cc(C(F)(F)F)c1 (stereo not drawn) [Compound 490],− (a “−” indicates that the compound has an MIC value greater than 16 micrograms/ml),–
N=C(N)NCCCNCc1ccc(-n2cc3cc(-c4cc(CCCCN)cc([S+]([O-])C(F)(F)F)c4Cl)[nH]c3nc2=O)cc1 (stereo not drawn) [Compound 220],+ (a “+” indicates that the compound has an MIC value of 16 micrograms/ml or less),–
N=C(N)NCCCNCc1ccc(-c2c[nH]c(NC(=O)Nc3c(CO)cccc3OCCCN)nc2=O)cc1 [Compound 190],− (a “−” indicates that the compound has an MIC value greater than 16 micrograms/ml),–
CC(N)CCCc1cc(-c2cc3cn(-c4ccc(CN5CCCCC5=N)cc4)c(=O)nc3[nH]2)cc(C(F)(F)F)c1 (stereo not drawn) [Compound 366],–,− (a “−” indicates that the compound has an MIC value greater than 16 micrograms/ml)
CC(N)CCCc1cc(OC(F)(F)F)c(F)c(-c2cc3cn(-c4ccc(CNCCCNC(=N)N)cc4)c(=O)nc3[nH]2)c1 (stereo not drawn) [Compound 286],+ (a “+” indicates that the compound has an MIC value of 16 micrograms/ml or less),–
CCc1cc(CCC[C@H](C)N)nc(-c2cc3cn(-c4ccc([C@H](C)NCCCNC(=N)N)cc4)c(=O)nc3[nH]2)c1 [Compound 388],–,+ (a “+” indicates that the compound has an MIC value of 16 micrograms/ml or less)
CSc1cc(CCCCN)cc(-c2cc3cn(-c4ccc(CNCCCNC(=N)N)cc4)c(=O)nc3[nH]2)c1C(F)(F)F [Compound 262],+ (a “+” indicates that the compound has an MIC value of 16 micrograms/ml or less),–
N=C(N)NCCCNCc1ccc(-n2cc3cc(-c4cc(CCCCN)cc(OC(F)(F)F)c4)[nH]c3nc2=O)cc1F [Compound 39],+ (a “+” indicates that the compound has an MIC value of 16 micrograms/ml or less),–
CNC[C@@H]1C[C@@H](NC(=O)Nc2nc(=O)c(-c3ccc(CNCCCNC(=N)N)cc3)c[nH]2)CN1C[C@@H](C)CN [Compound 151],+ (a “+” indicates that the compound has an MIC value of 16 micrograms/ml or less),–
N=C(N)NCCCCc1cc(F)c(Cl)c(-c2cc3cn(-c4ccc(CNCCCNC(=N)N)cc4)c(=O)nc3[nH]2)c1 [Compound 38],+ (a “+” indicates that the compound has an MIC value of 16 micrograms/ml or less),–
N=C(N)NCCCNCc1ccc(-n2cc3cc(-c4cc(CCC[C@@H](N)CO)cc(Cl)c4F)[nH]c3nc2=O)cc1 [Compound 342],–,+ (a “+” indicates that the compound has an MIC value of 16 micrograms/ml or less)
CC(C)c1cc(CCCCN)cc(-c2cc3cn(-c4ccc(CNCCCNC(=N)N)cc4)c(=O)nc3[nH]2)c1 [Compound 46],+ (a “+” indicates that the compound has an MIC value of 16 micrograms/ml or less),–
N=C(N)NCCCNCc1ccc(-n2cc3cc(-c4cc(CCCCN)c(OC(F)F)cc4F)[nH]c3nc2=O)cc1 [Compound 139],+ (a “+” indicates that the compound has an MIC value of 16 micrograms/ml or less),–
C[C@H](NCCCNC(=N)N)c1ccc(-n2cc3cc(-c4cc(CCC5COCC5N)cc(OC(F)(F)F)c4)[nH]c3nc2=O)cc1 (stereo partly drawn) [Compound 477],+ (a “+” indicates that the compound has an MIC value of 16 micrograms/ml or less),–
C=CC(NCCCNC(=N)N)c1ccc(-n2cc3cc(-c4cc(CCCC(C)N)cc(C(F)(F)F)c4)[nH]c3nc2=O)cc1 (stereo not drawn) [Compound 482],+ (a “+” indicates that the compound has an MIC value of 16 micrograms/ml or less),–
NCCC[C@H](O)c1cc(OC(F)(F)F)cc(-c2cc3cn(-c4ccc(CNCCCN=C(N)N)cc4)c(=O)nc3[nH]2)c1 [Compound 75],+ (a “+” indicates that the compound has an MIC value of 16 micrograms/ml or less),–
N=C(N)NCCCNCc1ccc(-n2cc3cc(-c4cc(C5CCC(N)CC5)cc(C(F)(F)F)c4)[nH]c3nc2=O)cc1 (mixture of isomers) [Compound 425],–,+ (a “+” indicates that the compound has an MIC value of 16 micrograms/ml or less)
CC(N)CCCc1cc(-c2cc3cn(-c4ccc(C(C)NCCCNC(=N)N)cc4)c(=O)nc3[nH]2)cc(C2CCCC2)c1 (stereo not drawn) [Compound 484],+ (a “+” indicates that the compound has an MIC value of 16 micrograms/ml or less),–
C[C@@H](CN)CN1C[C@H](NC(=O)Nc2nc(=O)c(-c3ccc(CNCCCNC(=N)N)cc3)c[nH]2)C[C@H]1CNCCC1CC1 [Compound 153],+ (a “+” indicates that the compound has an MIC value of 16 micrograms/ml or less),–

SMILES,E. coli ATCC25922 MIC [1],E. coli ATCC25922 MIC [2]
CC(NCCCNC(=N)N)c1ccc(-n2cc3cc(-c4cc(C5CCC(CN)CC5)cc(C(F)(F)F)c4)[nH]c3nc2=O)cc1 (mixture of isomers) [Compound 430],–,+ (a “+” indicates that the compound has an MIC value of 16 micrograms/ml or less)
C[C@H](N)CCCc1cc(SC(F)F)cc(-c2cc3cn(-c4ccc([C@H](C)NCCCNC(=N)N)cc4)c(=O)nc3[nH]2)c1 [Compound 308],+ (a “+” indicates that the compound has an MIC value of 16 micrograms/ml or less),–
N=C(N)NCCCNCc1ccc(-n2cc3cc(-c4cc(CCCCN)cc(NC(N)=O)c4)[nH]c3nc2=O)cc1 [Compound 49],+ (a “+” indicates that the compound has an MIC value of 16 micrograms/ml or less),–
C[C@H](NCCCNC(=N)N)c1ccc(-n2cc3cc(-c4cc(CC[C@@H](C)N)cc(C(F)(F)F)c4)[nH]c3nc2=O)cc1 [Compound 410],–,+ (a “+” indicates that the compound has an MIC value of 16 micrograms/ml or less)
N=C(N)NCCCNCc1ccc(-n2cc3cc(-c4cc(CCC5(CN)CC5)ccc4F)[nH]c3nc2=O)cc1 [Compound 136],+ (a “+” indicates that the compound has an MIC value of 16 micrograms/ml or less),–
N=C(N)NCCCNCc1ccc(-n2cc3cc(-c4cc(CCCCN)cc(C(F)(F)F)c4F)[nH]c3nc2=O)cc1 [Compound 111],+ (a “+” indicates that the compound has an MIC value of 16 micrograms/ml or less),–
CC(N)CCCc1cc(Cl)c(F)c(-c2cc3cn(-c4ccc(C(C)NCCCNC(N)=NCC5(C)COC5)cc4)c(=O)nc3[nH]2)c1 (stereo not drawn) [Compound 347],–,+ (a “+” indicates that the compound has an MIC value of 16 micrograms/ml or less)
N=C(N)NCCCNCc1ccc(-n2cc3cc(-c4cc(COCCN)ccc4F)[nH]c3nc2=O)cc1 [Compound 24],+ (a “+” indicates that the compound has an MIC value of 16 micrograms/ml or less),–
Cc1c(CC(C)C)cc(CCC[C@H](C)N)cc1-c1cc2cn(-c3ccc([C@H](C)NCCCNC(=N)N)cc3)c(=O)nc2[nH]1 [Compound 453],–,+ (a “+” indicates that the compound has an MIC value of 16 micrograms/ml or less)
C[C@H](NCCCNC(=N)N)c1ccc(-n2cc3cc(-c4cc(CC5CCC(N)CC5)cc(Cl)c4F)[nH]c3nc2=O)cc1 (stereo partly drawn) [Compound 449],–,+ (a “+” indicates that the compound has an MIC value of 16 micrograms/ml or less)
N#Cc1cc(CCCCN)cc(-c2cc3cn(-c4ccc(CNCCCNC(=N)N)cc4)c(=O)nc3[nH]2)c1F [Compound 122],+ (a “+” indicates that the compound has an MIC value of 16 micrograms/ml or less),–
CC(N)CCCc1cc(Cl)c(F)c(-c2cc3cn(-c4ccc(C5(NCCCNC(=N)N)CC5)cc4)c(=O)nc3[nH]2)c1 (stereo not drawn) [Compound 486],+ (a “+” indicates that the compound has an MIC value of 16 micrograms/ml or less),–
C[C@H](N)CCCc1cc2c(c(-c3cc4cn(-c5ccc([C@H](C)NCCCNC(=N)N)cc5)c(=O)nc4[nH]3)c1)CC=C2 [Compound 457],–,+ (a “+” indicates that the compound has an MIC value of 16 micrograms/ml or less)
CNC(C)CCCc1cc(-c2cc3cn(-c4ccc(CNCCCNC(=N)N)cc4)c(=O)nc3[nH]2)cc(C(F)(F)F)c1 (stereo not drawn) [Compound 287],+ (a “+” indicates that the compound has an MIC value of 16 micrograms/ml or less),–
C[C@H](N)CCCc1cc2c(c(-c3cc4cn(-c5ccc([C@H](C)NCCCNC(=N)N)cc5)c(=O)nc4[nH]3)c1)COC2 [Compound 441],–,+ (a “+” indicates that the compound has an MIC value of 16 micrograms/ml or less)
Cc1c(-c2cc3cn(-c4ccc(CNCCCNC(=N)N)cc4)c(=O)nc3[nH]2)cc(CCCCN)cc1C(F)(F)F [Compound 212],+ (a “+” indicates that the compound has an MIC value of 16 micrograms/ml or less),–
C[C@H](N)CCCc1cc(CC(F)(F)F)cc(-c2cc3cn(-c4ccc(CNCCCNC(=N)N)cc4)c(=O)nc3[nH]2)c1 [Compound 306],+ (a “+” indicates that the compound has an MIC value of 16 micrograms/ml or less),–
CC(N)COCc1cc(SC(F)(F)F)cc(-c2cc3cn(-c4ccc(C(C)NCCCNC(=N)N)cc4)c(=O)nc3[nH]2)c1 (stereo not drawn) [Compound 345],–,+ (a “+” indicates that the compound has an MIC value of 16 micrograms/ml or less)
Cc1cc(CCC[C@H](C)N)cc(-c2cc3cn(-c4ccc(CNCCCNC(=N)N)cc4)c(=O)nc3[nH]2)c1C [Compound 467],–,+ (a “+” indicates that the compound has an MIC value of 16 micrograms/ml or less)
CC(CCCc1cc(Cl)c(F)c(-c2cc3cn(-c4ccc(CNCCCNC(=N)N)cc4)c(=O)nc3[nH]2)c1)N(C)C (stereo not drawn) [Compound 298],+ (a “+” indicates that the compound has an MIC value of 16 micrograms/ml or less),–
CN(CCCNC(=N)N)Cc1ccc(-n2cc3cc(-c4cc(CCCCN)cc(Cl)c4F)[nH]c3nc2=O)cc1 [Compound 378],–,+ (a “+” indicates that the compound has an MIC value of 16 micrograms/ml or less)
